{"source": "patent US10258635B2", "about": "“Formulations and compositions of vitamin D analogs for treating and preventing cancer and other diseases” (priority 2013, dated 2019)", "key": {"[1]": {"assay": "Serum-stability study", "format": "in vitro ADME", "settings": "pooled human serum, 37° C., 60 minutes, HPLC", "protocol": "The organic layer was dried in a stream of nitrogen and the residue was analyzed by HPLC (5% H2O— 95% methanol 1.5 ml/min, 265 nm detection, Agilent C18 column)."}, "[2]": {"tested_on": "DU-145 human prostate cancer cells", "assay": "DU-145 xenograft efficacy, p.o. administration (Example 11)", "format": "in vivo, nude mice"}, "[3]": {"tested_on": "LNCaP, PC-3 and DU-145 prostate cancer cells", "assay": "Anti-proliferation and apoptosis in prostate cancer cells (summary)", "format": "cell-based"}, "[4]": {"tested_on": "DU-145 human prostate cancer cells", "assay": "DU-145 xenograft, AMPI-109 vs APH-0701 (Example 12)", "format": "in vivo, athymic mice", "settings": "0.5 μg/Kg", "protocol": "Male, athymic mice (average weight 20 gm) were fed normal rat chow and water ad libitum. They were inoculated with DU-145 cells (5×10^6 cells, dispersed in 100 μl PBS) in the flank."}, "[5]": {"assay": "Maximum tolerated dose of AMPI-109 in DU-145 tumor-bearing SCID mice", "format": "in vivo", "protocol": "DU-145 prostate cancer cells (ATCC, Manassas, Va.) were grown in culture, and then approximately 5 million cells/animal was injected under the skin in the flank area of SCID mice (Charles River). Tumors grew in 2-3 weeks, and when they reached a size of approximately 1 cm^3, they were injected with 0.1, 0.5 and 1 μg/kg dose of AMPI-109 (in 5% […] in sesame oil) intraperitoneally. Dosing levels were limited by concentrations and volumes. Each group had six mice. Dosing was carried out every third day and weight of each mouse was recorded."}, "[6]": {"tested_on": "24-OHase", "assay": "Message for 24-OHase in LNCaP cells", "format": "cell-based"}, "[7]": {"tested_on": "LNCaP prostate cancer cells", "assay": "3H-thymidine incorporation assay, APH-0701 vs naked AMPI-109", "format": "cell-based", "protocol": "Antiproliferative activities in these cells were measured by ^3H-thymidine incorporation assay."}, "[8]": {"assay": "Stability study in liver homogenate", "format": "in vitro ADME, mouse", "settings": "37° C., 60 minutes, HPLC", "protocol": "Pieces of liver, obtained from normal mice were minced and homogenized in phosphated saline with a polytron. […] The organic layer was dried in a stream of nitrogen and the residue was analyzed by HPLC (as above)."}, "[9]": {"tested_on": "RCC 54 kidney cancer cells", "settings": "7.5×10^−7 to 10^−6M", "description": "In a typical assay cells were grown to 50-60% confluence in 24-well plates in respective media containing 5% FBS, and serum starved for 20 hours, followed by treatment with various agents (in 0.1% ethanolic solution) or ethanol (vehicle) in serum-containing medium for 16 hours. After the treatment media was removed from the wells and replaced with media containing ^3H-thymidine (Sigma, 0.1 μCi) per well, and the cells were incubated for 3 hours at 37° C. After this period media was removed by aspiration and the cells were washed thoroughly (3×0.5 ml) with PBS. Ice-cold 5% perchloric acid solution (0.5 ml) was added to each well and the cells were incubated on ice for 20 minutes. After this incubation, perchloric acid was removed by aspiration, replaced with 0.5 ml of fresh perchloric acid solution and the cells were incubated at 70° C. for 20 minutes. Solution from each well was mixed with scintillation fluid and counted in a liquid scintillation counter. There were eight (8) wells per sample; statistics was carried out by Student's t test."}, "[10]": {"biological_target": "VDR (Homo sapiens, UniProt P11473)", "sequence (P11473 whole entry)": "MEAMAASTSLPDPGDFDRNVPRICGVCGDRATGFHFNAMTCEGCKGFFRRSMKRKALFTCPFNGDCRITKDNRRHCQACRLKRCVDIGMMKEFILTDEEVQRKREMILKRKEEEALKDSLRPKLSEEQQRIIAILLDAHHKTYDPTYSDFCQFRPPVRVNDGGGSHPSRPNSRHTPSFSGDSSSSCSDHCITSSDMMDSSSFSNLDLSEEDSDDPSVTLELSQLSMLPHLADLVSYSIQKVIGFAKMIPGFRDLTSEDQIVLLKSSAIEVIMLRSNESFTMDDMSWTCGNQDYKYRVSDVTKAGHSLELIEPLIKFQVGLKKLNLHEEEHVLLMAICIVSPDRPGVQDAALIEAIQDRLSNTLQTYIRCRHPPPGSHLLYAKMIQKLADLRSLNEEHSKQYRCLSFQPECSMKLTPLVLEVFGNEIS", "assay": "Covalent linking to and activation of VDR", "format": "biochemical", "settings": "covalent link in ligand-binding pocket via a cysteine residue"}, "[11]": {"tested_on": "DU-145 human prostate cancer cells", "assay": "DU-145 xenograft efficacy, i.p. administration (Example 10)", "format": "in vivo, athymic mice", "protocol": "Male, athymic mice (average weight 20 gm) were fed normal rat chow and water ad libitum. They were inoculated with DU 145 cells, grown in culture in their flanks under light anesthesia. When the tumor size grew to approximately 100 mm^3 the animals were randomized into groups of ten (10) tumor-bearing animals, and they were given AMPI-109 (0.1 μg/kg), calcitriol (0.5 and 1 μg/kg), and vehicle (5% DMA in sesame oil) by intraperitoneal injection (i.p.) on every third day (when body weights were determined); and one group was left untreated. Treatment started on day 11 and stopped on day 30; and they were left untreated for two (2) additional days when they were sacrificed."}, "[12]": {"tested_on": "normal kidney cells", "assay": "3H-thymidine incorporation assay in normal kidney cells", "format": "cell-based", "settings": "10^−6M"}, "[13]": {"tested_on": "DU-145 cells", "assay": "3H-thymidine incorporation assay in DU-145 cells", "format": "cell-based, human"}}, "note": "“Also recorded” adds a separate entry of the source.", "data": [{"molecule": "C=C1/C(=C\\C=C2/CCC[C@@]3(C)C2CC[C@@H]3C(C)CCCC(C)(C)O)C[C@@H](OC(=O)CBr)CC1O", "note": "(stereo partly drawn) [AMPI-109, 1α,25-dihydroxyvitamin D3-3-bromoacetate]", "values": [{"measurement": "stability in human serum", "setting": "[1]", "value": "corresponds to the peak of a standard sample"}, {"measurement": "anti-tumor effect", "setting": "[2]; 0.5 μg/kg p.o. oral gavage", "value": "strong anti-tumor effect"}, {"measurement": "potency in p.o.-mode relative to i.p.-mode (times less potent)", "setting": "[2]; mouse, in vivo", "value": 5, "unit": "times"}, {"measurement": "body weight", "setting": "[2]; p.o., calcitriol 0.5 μg/kg and 1.0 μg/kg, AMPI-109 0.5 μg/kg", "value": "did not cause any significant change in body weight"}, {"measurement": "apoptosis", "setting": "[3]", "value": "induced apoptosis"}, {"measurement": "anti-proliferative strength relative to calcitriol", "setting": "[3]; mole-per-mole basis", "value": "significantly stronger anti-proliferative agent than calcitriol"}, {"measurement": "gross body-weights", "setting": "[4]", "value": "not significantly different from control animals"}, {"measurement": "average size of tumors at the end of the experiment", "setting": "[4]; every third day, day 7 to 42", "value": "~475", "unit": "mm^3"}, {"measurement": "mortality", "setting": "[5]; 1 μg/kg i.p. every third day", "value": "All mice in the 1 μg/Kg dose died after three dosing"}, {"measurement": "relative MTD", "setting": "[5]; i.p., every third day, based on dosing", "value": "≤ 3", "unit": "µg/kg"}, {"measurement": "message for 24-OHase", "setting": "[6]", "value": "up regulated"}, {"measurement": "growth of LNCaP cells", "setting": "[7]", "value": "almost completely inhibited the growth of LNCaP cells"}, {"measurement": "stability in mouse liver homogenate", "setting": "[8]", "value": "corresponds to the peak of a standard sample"}, {"measurement": "reduction of proliferation of RCC 54 kidney cancer cells", "setting": "[9]", "value": "> 95", "unit": "%"}, {"measurement": "VDR activation", "setting": "[10]", "value": "constitutively activated VDR"}, {"measurement": "body weight", "setting": "[11]; 0.1 μg/kg i.p.", "value": "some reduction in body weight"}, {"measurement": "anti-tumor effect", "setting": "[11]; 0.1 μg/kg i.p. every third day, day 11 to 30", "value": "strong anti-tumor effect"}, {"measurement": "potency relative to calcitriol in reducing tumor-size", "setting": "[11]; i.p., weight basis", "value": "approximately 5 times"}, {"measurement": "impact on normal kidney cells versus control", "setting": "[12]", "value": "neither Calcitriol nor AMPI-109 had any statistically different impact"}, {"measurement": "antiproliferative effect in DU-145 cells", "setting": "[13]; 2.5×10^−7M to 10^−6M, 20 hours", "value": "strong and dose-dependent antiproliferative effect"}, {"measurement": "anti-proliferative effect in DU-145 cells", "setting": "[13]; 10^−6M, separate experiment", "value": "strong anti-proliferative effect; also recorded: significantly stronger antiproliferative agent than EB-1089"}]}]}
